Laboratory results published in ChEMBL document CHEMBL5584238, “Psammaplin A analogues with modified disulfide bond targeting histone deacetylases: Synthesis and biological evaluation” (Eur J Med Chem, 2024).
Calls of active or inactive are those of the source. No cut-off for these calls is given here.

What was measured:
HCT-116 [1] = assay: Induction of cell cycle arrest in human HCT-116 cells assessed as accumulation of cells at S phase at 0.4 uM after 24 hrs by PI staining based flow cytometry analysis (reference value: 52.8%); type: functional
HCT-116 [2] = assay: Induction of apoptosis in human HCT-116 cells assessed as viable cells at 0.4 uM incubated for 24 hrs by Annexin V-FITC/PI staining based flow cytometry analysis ( Rvb = 92.2%); type: functional; settings: read-out: Activity
HCT-116 [3] = assay: Induction of cell cycle arrest in human HCT-116 cells assessed as accumulation of cells at S phase at 0.1 uM after 24 hrs by PI staining based flow cytometry analysis (reference value: 52.8%); type: functional
HCT-116 [4] = assay: Antiproliferative activity against human HCT-116 cells incubated for 48 hrs by MTT assay; type: functional, cell-based; settings: HCT-116, 48 h
HCT-116 [5] = assay: Induction of apoptosis in human HCT-116 cells assessed as late apoptotic cells at 0.2 uM incubated for 24 hrs by Annexin V-FITC/PI staining based flow cytometry analysis ( Rvb = 5.32%); type: functional
EBC-1 = assay: Antiproliferative activity against human EBC-1 cells incubated for 48 hrs by MTT assay; type: functional, cell-based; settings: EBC-1, 48 h
HCT-116 [6] = assay: Induction of apoptosis in human HCT-116 cells assessed as early apoptotic cells at 0.4 uM incubated for 24 hrs by Annexin V-FITC/PI staining based flow cytometry analysis ( Rvb = 2.36%); type: functional
HCT-116 [7] = assay: Induction of cell cycle arrest in human HCT-116 cells assessed as accumulation of cells at G2/M phase at 0.2 uM after 24 hrs by PI staining based flow cytometry analysis (reference value: 9.3%); type: functional
[8] = target: Class 1 histone deacetylase (Homo sapiens) (UniProt Q13547+O15379+Q92769+Q9BY41); assay: Inhibition of class 1 HDACs in human HCT-116 cells assessed as upregulation of acetylated alpha-H3 level at 1 uM incubated for 24 hrs by Western blotting analysis; type: cell-based
HCT-116 [9] = assay: Induction of apoptosis in human HCT-116 cells assessed as necrotic cells at 0.4 uM incubated for 24 hrs by Annexin V-FITC/PI staining based flow cytometry analysis ( Rvb = 0.24%); type: functional
HCT-116 [10] = assay: Induction of apoptosis in human HCT-116 cells assessed as late apoptotic cells at 0.4 uM incubated for 24 hrs by Annexin V-FITC/PI staining based flow cytometry analysis ( Rvb = 5.32%); type: functional
HCT-116 [11] = assay: Induction of cell cycle arrest in human HCT-116 cells assessed as accumulation of cells at G1 phase at 0.4 uM after 24 hrs by PI staining based flow cytometry analysis (reference value: 37.9%); type: functional
HCT-116 [12] = assay: Induction of apoptosis in human HCT-116 cells assessed as viable cells at 0.2 uM incubated for 24 hrs by Annexin V-FITC/PI staining based flow cytometry analysis ( Rvb = 92.2%); type: functional; settings: read-out: Activity
[13] = target: T1, Protein deacetylase HDAC6 (Homo sapiens) (UniProt Q9UBN7); assay: Inhibition of HDAC6 in human HCT-116 cells assessed as upregulation of acetylated alpha-tubulin level incubated for 24 hrs by Western blotting analysis; type: cell-based; settings: dose 0.5-4 µM
T1 sequence (whole entry): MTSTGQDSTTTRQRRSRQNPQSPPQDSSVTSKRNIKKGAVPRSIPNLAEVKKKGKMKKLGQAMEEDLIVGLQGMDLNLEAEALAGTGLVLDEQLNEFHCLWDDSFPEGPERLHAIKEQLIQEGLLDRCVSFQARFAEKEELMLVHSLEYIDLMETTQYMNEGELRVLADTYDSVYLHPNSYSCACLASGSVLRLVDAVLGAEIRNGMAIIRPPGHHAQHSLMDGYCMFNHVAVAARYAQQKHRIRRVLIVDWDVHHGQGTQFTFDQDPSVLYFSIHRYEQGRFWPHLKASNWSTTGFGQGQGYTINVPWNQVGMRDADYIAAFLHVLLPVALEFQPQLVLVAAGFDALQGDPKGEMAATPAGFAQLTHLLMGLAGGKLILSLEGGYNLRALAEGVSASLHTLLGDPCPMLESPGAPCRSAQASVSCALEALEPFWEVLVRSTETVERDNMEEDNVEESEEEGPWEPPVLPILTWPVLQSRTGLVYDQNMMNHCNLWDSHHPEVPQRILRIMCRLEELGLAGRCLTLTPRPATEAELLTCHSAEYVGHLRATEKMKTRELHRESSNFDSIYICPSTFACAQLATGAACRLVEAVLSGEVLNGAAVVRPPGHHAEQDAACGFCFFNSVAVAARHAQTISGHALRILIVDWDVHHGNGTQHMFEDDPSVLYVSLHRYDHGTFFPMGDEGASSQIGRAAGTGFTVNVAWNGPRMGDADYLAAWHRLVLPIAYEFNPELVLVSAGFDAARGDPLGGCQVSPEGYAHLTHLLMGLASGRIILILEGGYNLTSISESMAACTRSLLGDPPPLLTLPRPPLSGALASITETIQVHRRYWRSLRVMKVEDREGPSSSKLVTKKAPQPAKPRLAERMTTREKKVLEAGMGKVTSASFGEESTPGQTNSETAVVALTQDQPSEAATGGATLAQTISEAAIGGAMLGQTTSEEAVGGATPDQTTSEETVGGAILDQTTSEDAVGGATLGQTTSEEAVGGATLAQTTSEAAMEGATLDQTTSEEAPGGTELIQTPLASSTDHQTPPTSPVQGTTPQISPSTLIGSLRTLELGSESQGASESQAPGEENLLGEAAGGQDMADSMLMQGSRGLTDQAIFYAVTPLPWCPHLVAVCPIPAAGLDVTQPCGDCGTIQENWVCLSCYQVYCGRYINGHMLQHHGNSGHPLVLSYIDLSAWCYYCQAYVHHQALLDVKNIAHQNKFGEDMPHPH

[14] = target: T1, Protein deacetylase HDAC6 (Homo sapiens); assay: Inhibition of HDAC6 in human HCT-116 cells assessed as upregulation of acetylated alpha-tubulin level at 1 uM incubated for 24 hrs by Western blotting analysis; type: cell-based
HCT-116 [15] = assay: Induction of cell cycle arrest in human HCT-116 cells assessed as accumulation of cells at G2/M phase at 0.4 uM after 24 hrs by PI staining based flow cytometry analysis (reference value: 9.3%); type: functional
HCT-116 [16] = assay: Induction of cell cycle arrest in human HCT-116 cells assessed as accumulation of cells at G1 phase at 0.1 uM after 24 hrs by PI staining based flow cytometry analysis (reference value: 37.9%); type: functional
HCT-116 [17] = assay: Induction of apoptosis in human HCT-116 cells assessed as necrotic cells at 0.2 uM incubated for 24 hrs by Annexin V-FITC/PI staining based flow cytometry analysis ( Rvb = 0.24%); type: functional
Mus musculus = assay: In vivo inhibition of class 1 HDACs in BALB/c nude mouse assessed as upregulation of tumor acetylated H3 level at 5 mg/kg, ip administered every 2 days for 26 days by Western blotting analysis; type: functional, organism-based; settings: time 26.0 day
HCT-116 [18] = assay: Induction of apoptosis in human HCT-116 cells assessed as early apoptotic cells at 0.2 uM incubated for 24 hrs by Annexin V-FITC/PI staining based flow cytometry analysis ( Rvb = 2.36%); type: functional

Chain of Class 1 histone deacetylase (Homo sapiens) (O15379 whole entry, looked up): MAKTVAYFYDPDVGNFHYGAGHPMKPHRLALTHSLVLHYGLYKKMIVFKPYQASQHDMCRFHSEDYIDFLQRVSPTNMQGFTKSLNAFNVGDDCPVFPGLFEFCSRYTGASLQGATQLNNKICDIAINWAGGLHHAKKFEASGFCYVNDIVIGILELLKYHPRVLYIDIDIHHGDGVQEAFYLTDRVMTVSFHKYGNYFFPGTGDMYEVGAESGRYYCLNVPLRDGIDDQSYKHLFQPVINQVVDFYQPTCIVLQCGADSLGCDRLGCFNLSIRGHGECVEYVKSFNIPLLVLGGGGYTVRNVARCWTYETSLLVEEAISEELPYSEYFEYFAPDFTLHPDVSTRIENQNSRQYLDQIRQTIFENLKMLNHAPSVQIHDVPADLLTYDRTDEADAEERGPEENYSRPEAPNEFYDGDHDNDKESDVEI
Chain of Class 1 histone deacetylase (Homo sapiens) (Q13547 whole entry, looked up): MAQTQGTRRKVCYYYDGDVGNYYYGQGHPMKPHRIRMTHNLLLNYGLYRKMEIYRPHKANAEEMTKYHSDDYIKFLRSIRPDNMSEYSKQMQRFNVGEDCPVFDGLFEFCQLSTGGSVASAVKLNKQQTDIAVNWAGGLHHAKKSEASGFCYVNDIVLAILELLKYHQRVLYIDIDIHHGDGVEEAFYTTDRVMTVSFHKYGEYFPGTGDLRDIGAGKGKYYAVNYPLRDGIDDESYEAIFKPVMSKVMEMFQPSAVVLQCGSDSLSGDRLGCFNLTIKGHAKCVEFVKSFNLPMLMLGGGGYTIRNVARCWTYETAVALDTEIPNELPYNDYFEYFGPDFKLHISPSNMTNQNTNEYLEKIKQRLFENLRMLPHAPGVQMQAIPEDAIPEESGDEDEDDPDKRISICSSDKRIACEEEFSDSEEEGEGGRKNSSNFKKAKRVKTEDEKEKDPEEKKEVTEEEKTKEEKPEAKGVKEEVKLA
Chain of Class 1 histone deacetylase (Homo sapiens) (Q92769 whole entry, looked up): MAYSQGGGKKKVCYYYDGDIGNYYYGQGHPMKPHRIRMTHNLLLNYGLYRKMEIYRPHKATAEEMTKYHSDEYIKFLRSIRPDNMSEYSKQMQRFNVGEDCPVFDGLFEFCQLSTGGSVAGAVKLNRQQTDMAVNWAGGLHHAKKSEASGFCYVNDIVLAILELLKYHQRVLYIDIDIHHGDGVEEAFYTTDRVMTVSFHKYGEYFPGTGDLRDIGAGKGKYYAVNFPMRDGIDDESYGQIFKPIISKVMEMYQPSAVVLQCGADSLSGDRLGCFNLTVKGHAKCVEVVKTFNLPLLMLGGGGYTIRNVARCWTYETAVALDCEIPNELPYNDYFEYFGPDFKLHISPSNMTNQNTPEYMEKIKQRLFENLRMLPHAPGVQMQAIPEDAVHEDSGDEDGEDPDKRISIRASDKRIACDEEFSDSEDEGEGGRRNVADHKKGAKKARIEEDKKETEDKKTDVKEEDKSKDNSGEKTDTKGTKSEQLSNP
Chain of Class 1 histone deacetylase (Homo sapiens) (Q9BY41 whole entry, looked up): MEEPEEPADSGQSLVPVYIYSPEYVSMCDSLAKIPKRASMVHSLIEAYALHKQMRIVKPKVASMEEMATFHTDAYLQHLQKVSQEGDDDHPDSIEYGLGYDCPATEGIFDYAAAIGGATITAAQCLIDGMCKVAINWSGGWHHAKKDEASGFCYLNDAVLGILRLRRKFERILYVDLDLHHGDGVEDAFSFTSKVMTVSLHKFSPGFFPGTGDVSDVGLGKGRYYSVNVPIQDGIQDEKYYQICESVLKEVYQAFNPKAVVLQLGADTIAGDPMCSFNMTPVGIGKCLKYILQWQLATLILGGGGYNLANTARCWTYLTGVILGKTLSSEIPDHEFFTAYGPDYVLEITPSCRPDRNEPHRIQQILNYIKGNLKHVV

Compound | Activity (HCT-116 [1]) | viability at 0.4 µM (HCT-116 [2]) | Activity (HCT-116 [3]) | IC50 (HCT-116 [4]) | Activity (HCT-116 [5]) | IC50 (EBC-1) | Activity (HCT-116 [6]) | Activity (HCT-116 [7]) | inhibition [8] | Activity (HCT-116 [9]) | Activity (HCT-116 [10]) | Activity (HCT-116 [11]) | viability at 0.2 µM (HCT-116 [12]) | inhibition [13] | inhibition [14] | Activity (HCT-116 [15]) | Activity (HCT-116 [16]) | Activity (HCT-116 [17]) | inhibition (Mus musculus) | Activity (HCT-116 [18])
O=C(NCC[Se][Se]CCNC(=O)/C(Cc1ccsc1)=N/O)/C(Cc1ccsc1)=N/O | 39.56% | 19.7% | 18.84% | 210 nM | 7.96% | 640 nM | 73.3% | 51.82% | Active | 0.057% | 6.97% | 7.85% | 34.5% | Dose-Dependent Effect | Active | 52.59% | 50.11% | 0.18% | Active | 47.1%
O=C(NCC[Se][Se]CCNC(=O)/C(Cc1ccc(O)c(Br)c1)=N/O)/C(Cc1ccc(O)c(Br)c1)=N/O |  | 28% | 20% | 240 nM | 12.9% |  | 67% | 74.56% |  | 0.082% | 4.94% |  | 40.7% | Dose-Dependent Effect |  |  | 32.08% | 0.32% | Active | 46.1%
